From patent US20100298141A1, “SUBSTITUTED PYRIDINE N-OXIDE HERBICIDES” (E. I. DU PONT DE NEMOURS AND COMPANY, priority 2007, published 2010)

How the values were obtained:
Experiment in all cases: Test F preemergence test
Conditions in all cases: scale 0 to 100
[1] = test system: common purslane; format: in vivo, Portulaca oleracea
Source text: (§1) Seeds of plant species selected from bermudagrass (Cynodon dactylon), Surinam grass (Brachiaria decumbens), large crabgrass (Digitaria sanguinalis), green foxtail (Setaria viridis), goosegrass (Eleusine indica), johnsongrass (Sorghum halepense), kochia (Kochia scoparia), pitted morningglory (Ipomoea lacunosa), purple nutsedge (Cyperus rotundus), common ragweed (Ambrosia elation), mustard (Brassica nigra), guineagrass (Panicum maximum), […] (Paspalum dilatatum), barnyardgrass (Echinochloa crus-galli), southern sandbur (Cenchrus echinatus), common sowthistle (Sonchus oleraceous), prickly […] spinosa), Italian ryegrass (Lolium multiflorum), common purslane (Portulaca oleracea), broadleaf signalgrass (Brachiaria platyphylla), common groundsel (Senecio vulgaris), common chickweed (Stellaria media), Virginia dayflower (Commelina virginica), annual bluegrass (Poa annua), naked crabgrass (Digitaria nuda), […] cochinchinensis), quackgrass (Elytrigia repens), Canada horseweed (Conyza canadensis), field bindweed (Convolvulus arvensis), […] (Bidens bipinnata), common mallow (Malva sylvestris), Russian thistle (Salsola kali), and sugarcane (Saccharum officinarum) were planted and treated preemergence with test chemicals formulated in a non-phytotoxic solvent mixture which included a surfactant. At a different time, sugarcane was treated with postemergence applications of some of the test chemicals formulated in the same manner. Plants were approximately 3- to 4-leaf stage for the postemergence treatments. Treated plants and controls were maintained in a greenhouse for 14 to 21 days, after which time all species were compared to controls and visually evaluated. […] A dash (-) response means no test result.

[2] = test system: itchgrass; format: in vivo, Rottboellia cochinchinensis
Source text: as §1

[3] = test system: common groundsel; format: in vivo, Senecio vulgaris
Source text: as §1

[4] = test system: field bindweed; format: in vivo, Convolvulus arvensis
Source text: as §1

[5] = test system: large crabgrass; format: in vivo, Digitaria sanguinalis
Source text: as §1

[6] = test system: annual bluegrass; format: in vivo, Poa annua
Source text: as §1

[7] = test system: southern sandbur; format: in vivo, Cenchrus echinatus
Source text: as §1

[8] = test system: green foxtail; format: in vivo, Setaria viridis
Source text: as §1

[9] = test system: goosegrass; format: in vivo, Eleusine indica
Source text: as §1

[10] = test system: johnsongrass; format: in vivo, Sorghum halepense
Source text: as §1

[11] = test system: pitted morningglory; format: in vivo, Ipomoea lacunosa
Source text: as §1

[12] = test system: purple nutsedge; format: in vivo, Cyperus rotundus
Source text: as §1

[13] = test system: naked crabgrass; format: in vivo, Digitaria nuda
Source text: as §1

[14] = test system: Italian ryegrass; format: in vivo, Lolium multiflorum
Source text: as §1

[15] = test system: barnyardgrass; format: in vivo, Echinochloa crus-galli
Source text: as §1

## Cn1nc(C(F)(F)F)c(C[S+]([O-])c2ccc(Cl)c[n+]2[O-])c1OC(F)F (stereo not drawn) [Compound 6]
[1]; 8 g ai/ha, preemergence
  Plant response rating, Purslane: 10
[1]; 62 g ai/ha, Preemergence
  Purslane plant response rating: 70
[1]; Preemergence, 16 g ai/ha
  Plant response rating, Purslane: 20
[1]; Preemergence, 31 g ai/ha
  Plant response rating, Purslane: 50
[2]; 8 g ai/ha, preemergence
  Plant response rating, Itchgrass: 0
[2]; 62 g ai/ha, Preemergence
  Itchgrass plant response rating: 95
[2]; Preemergence, 16 g ai/ha
  Plant response rating, Itchgrass: 60
[2]; Preemergence, 31 g ai/ha
  Plant response rating, Itchgrass: 75
[3]; 8 g ai/ha, preemergence
  Plant response rating, Groundsel: 0
[3]; 62 g ai/ha, Preemergence
  Groundsel plant response rating: 75
[3]; Preemergence, 16 g ai/ha
  Plant response rating, Groundsel: 50
[3]; Preemergence, 31 g ai/ha
  Plant response rating, Groundsel: 75
[4]; 8 g ai/ha, preemergence
  Plant response rating, Field Bindweed: 0
[4]; 62 g ai/ha, Preemergence
  Field Bindweed plant response rating: 50
[4]; Preemergence, 16 g ai/ha
  Plant response rating, Field Bindweed: 50
[4]; Preemergence, 31 g ai/ha
  Plant response rating, Field Bindweed: 50
[5]; 8 g ai/ha, preemergence
  Plant response rating, Crabgrass, Large: 0
[5]; 62 g ai/ha, Preemergence
  Crabgrass, Large plant response rating: 95
[5]; Preemergence, 16 g ai/ha
  Plant response rating, Crabgrass, Large: 15
[5]; Preemergence, 31 g ai/ha
  Plant response rating, Crabgrass, Large: 70
[6]; 8 g ai/ha, preemergence
  Plant response rating, Bluegrass: 0
[6]; 62 g ai/ha, Preemergence
  Bluegrass plant response rating: 90
[6]; Preemergence, 16 g ai/ha
  Plant response rating, Bluegrass: 10
[6]; Preemergence, 31 g ai/ha
  Plant response rating, Bluegrass: 75
[7]; 8 g ai/ha, preemergence
  Plant response rating, Sandbur: 0
[7]; 16 g ai/ha, preemergence
  Plant response rating, Sandbur: 75
[7]; 62 g ai/ha, Preemergence
  Sandbur plant response rating: 100
[7]; Preemergence, 31 g ai/ha
  Plant response rating, Sandbur: 100
[8]; 8 g ai/ha, preemergence
  Plant response rating, Foxtail, Green: 0
[8]; 62 g ai/ha, Preemergence
  Foxtail, Green plant response rating: 85
[8]; Preemergence, 16 g ai/ha
  Plant response rating, Foxtail, Green: 65
[8]; Preemergence, 31 g ai/ha
  Plant response rating, Foxtail, Green: 80
[9]; 8 g ai/ha, preemergence
  Plant response rating, Goosegrass: 20
[9]; 62 g ai/ha, Preemergence
  Goosegrass plant response rating: 95
[9]; Preemergence, 16 g ai/ha
  Plant response rating, Goosegrass: 75
[9]; Preemergence, 31 g ai/ha
  Plant response rating, Goosegrass: 90
[10]; 8 g ai/ha, preemergence
  Plant response rating, Johnsongrass: 75
[10]; 62 g ai/ha, Preemergence
  Johnsongrass plant response rating: 95
[10]; Preemergence, 16 g ai/ha
  Plant response rating, Johnsongrass: 75
[10]; Preemergence, 31 g ai/ha
  Plant response rating, Johnsongrass: 95
[11]; 8 g ai/ha, preemergence
  Plant response rating, Morningglory: 0
[11]; 62 g ai/ha, Preemergence
  Morningglory plant response rating: 75
[11]; Preemergence, 16 g ai/ha
  Plant response rating, Morningglory: 0
[11]; Preemergence, 31 g ai/ha
  Plant response rating, Morningglory: 75
[12]; 8 g ai/ha, preemergence
  Plant response rating, Purple Nutsedge: 0
[12]; 62 g ai/ha, Preemergence
  Purple Nutsedge plant response rating: 75
[12]; Preemergence, 16 g ai/ha
  Plant response rating, Purple Nutsedge: 20
[12]; Preemergence, 31 g ai/ha
  Plant response rating, Purple Nutsedge: 20
[13]; 8 g ai/ha, preemergence
  Plant response rating, Crabgrass, Naked: 0
[13]; 62 g ai/ha, Preemergence
  Crabgrass, Naked plant response rating: 100
[13]; Preemergence, 16 g ai/ha
  Plant response rating, Crabgrass, Naked: 65
[13]; Preemergence, 31 g ai/ha
  Plant response rating, Crabgrass, Naked: 80
[14]; 8 g ai/ha, preemergence
  Plant response rating, Ryegrass, Italian: 0
[14]; 62 g ai/ha, Preemergence
  Ryegrass, Italian plant response rating: 85
[14]; Preemergence, 16 g ai/ha
  Plant response rating, Ryegrass, Italian: 40
[14]; Preemergence, 31 g ai/ha
  Plant response rating, Ryegrass, Italian: 75
[15]; 8 g ai/ha, preemergence
  Plant response rating, Barnyardgrass: 0
[15]; 62 g ai/ha, Preemergence
  Barnyardgrass plant response rating: 90
[15]; Preemergence, 16 g ai/ha
  Plant response rating, Barnyardgrass: 70
[15]; Preemergence, 31 g ai/ha
  Plant response rating, Barnyardgrass: 80
